Consider one molecule from patent publication US7910647B2, “Adhesion inhibition of microorganisms by non-ionic surfactants” (Henkel AG & Co. KGaA, priority 2003, dated 2011).

In the assay the test system is Aspergillus niger. The assay is described as follows: Adhesion test with molds on silicone sealant DC3390 film. The conditions noted are these: 1 wt. % surfactant in silicone sealant DC3390; adhered Aspergillus niger spores (CFU) after 48 hours at 25° C.; sealant with no active substance = 100. The procedure:
The silicone sealant DC3390 was used. 1 wt. % of surfactant was added and homogenized in the Speedmixer. The surfactants indicated in Table 1 were tested in comparison with the joint sealing compound without the addition of the surfactants being tested. The resulting composition was spread as the film (22×22×2 mm) and left to harden in air. The resulting test specimen was disinfected with 70% ethanol for 10 minutes, then washed with distilled water and dried. The test specimens were subsequently coated with a germ suspension of Aspergillus niger and incubated for one hour. The germ suspension was then siphoned off and the specimen was washed twice. The specimens were transferred into sterile tubes that contained 5 ml of inactivation solution and shaken on a shaker for 10 minutes at 400 rpm. To determine the number of adhered spores, firstly the specimens were placed in sterile 6-well plates and covered with wort agar with INT, secondly a determination of the colony count of the inactivation solution was carried out by the inoculation plate method. After 48 hours incubation at 25° C., the number of colony forming units (CFU) was subsequently determined.

Regarding `CCO[Si](CCC(F)(F)C(F)(F)C(F)(F)C(F)(F)C(F)(F)C(F)(F)F)(OCC)OCC` [DYNASYLAN F8261, perfluorinated octyltriethoxysilane], the “Mold adhesion [%]” value is given as 80%.
